Results published in patent publication US6737383B1, “Herbicidal oxadiazolidines” (priority 1999, dated 2004).

Assays:
wild oat = experiment: Test B pre/postemergence wild oat; assay type: in vivo, Avena fatua
Procedure, shortened: (§1)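 Response is a visual 0-to-10 score relative to untreated plants, where 0 means no effect and 10 means complete control, taken twelve to sixteen days after application. Treatments went onto soil at planting and onto foliage of 1- to 4-leaf plants, using a surfactant-containing non-phytotoxic solvent.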

surinam grass = experiment: Test B pre/postemergence surinam grass; assay type: in vivo, Brachiaria decumbens
Procedure, shortened: as §1

velvetleaf = experiment: Test B pre/postemergence velvetleaf; assay type: in vivo, Abutilon theophrasti
Procedure, shortened: as §1

cocklebur = experiment: Test B pre/postemergence cocklebur; assay type: in vivo, Xanthium strumarium
Procedure, shortened: as §1

morningglory = experiment: Test B pre/postemergence morningglory; assay type: in vivo, Ipomoea hederacea
Procedure, shortened: as §1

rice = experiment: Test B flood test rice; assay type: in vivo, Oryza sativa
Procedure, shortened: (§2)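 Each value is a visual injury score relative to controls, with 10 meaning complete control and 0 no effect. Evaluation took place twelve to sixteen days after the 2-leaf-stage plants were treated and kept in the greenhouse.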

duck salad = experiment: Test B flood test duck salad; assay type: in vivo, Heteranthera limosa
Procedure, shortened: as §2

bamyardgrass = experiment: Test B flood test barnyardgrass; assay type: in vivo, Echinochloa crus-galli
Procedure, shortened: as §2

rape = experiment: Test B pre/postemergence rape; assay type: in vivo, Brassica napus
Procedure, shortened: as §1

corn = experiment: Test B pre/postemergence corn; assay type: in vivo, Zea mays
Procedure, shortened: as §1

blackgrass = experiment: Test B pre/postemergence blackgrass; assay type: in vivo, Alopecurus myosuroides
Procedure, shortened: as §1

wheat = experiment: Test B pre/postemergence wheat; assay type: in vivo, Triticum aestivum
Procedure, shortened: as §1

pigweed = experiment: Test B pre/postemergence pigweed; assay type: in vivo, Amaranthus retroflexus
Procedure, shortened: as §1

smallflower flatsedge = experiment: Test B flood test smallflower flatsedge; assay type: in vivo, Cyperus difformis
Procedure, shortened: as §2

purple nutsedge = experiment: Test B pre/postemergence purple nutsedge; assay type: in vivo, Cyperus rotundus
Procedure, shortened: as §1

[1] = Postemergence, Rate 250 g/ha, scale 0 to 10
[2] = Postemergence, Rate 500 g/ha, scale of 0 to 10 where 0 is no effect and 10 is complete control
[3] = Preemergence, Rate 62 g/ha, scale of 0 to 10 where 0 is no effect and 10 is complete control
[4] = Preemergence, Rate 125 g/ha, scale of 0 to 10 where 0 is no effect and 10 is complete control
[5] = Preemergence, Rate 250 g/ha, scale 0 to 10, 0 is no effect, 10 is complete control
[6] = Preemergence, Rate 500 g/ha, scale 0 to 10, 0 is no effect, 10 is complete control
[7] = Rate 62 g/ha, Postemergence, scale 0 to 10 (0 no effect, 10 complete control)
[8] = Rate 125 g/ha, Postemergence, scale 0 to 10, 0 is no effect, 10 is complete control
[9] = Rate 62 g/ha, flood test species, Pre-emergence, visual evaluation after twelve to sixteen days
[10] = Rate 125 g/ha, under heading Pre-emergence, flood test species, visual evaluation after twelve to sixteen days
[11] = Rate 250 g/ha, Pre-emergence (flood test species), scale 0 to 10, 0 is no effect, 10 is complete control
[12] = Rate 500 g/ha, Pre-emergence, flood test species, scale 0 to 10 (0 no effect, 10 complete control)

CC(C)N(C(=O)n1oc(=O)n(CCC#N)c1=O)c1ccc(Cl)cc1 [Compound 444]
Wild oats plant response rating (wild oat; [1]): 0
Wild oats plant response rating (wild oat; [2]): 2
Plant response rating, Wild oats (wild oat; [3]): 0
Plant response rating, Wild oats (wild oat; [4]): 0
Wild oats plant response rating (wild oat; [5]): 0
Wild oats plant response rating (wild oat; [6]): 4
Wild oats plant response rating (wild oat; [7]): 0
Wild oats plant response rating (wild oat; [8]): 0
B. signalgrass plant response rating (surinam grass; Postemergence, Rate 250 g/ha, scale 0 to 10, 0 no effect, 10 complete control): 4
B. signalgrass plant response rating (surinam grass; [2]): 4
Plant response rating, B. signalgrass (surinam grass; [3]): 0
Plant response rating, B. signalgrass (surinam grass; [4]): 0
B. signalgrass plant response rating (surinam grass; [5]): 1
B. signalgrass plant response rating (surinam grass; [6]): 8
B. signalgrass plant response rating (surinam grass; [7]): 0
B. signalgrass plant response rating (surinam grass; [8]): 0
Velvetleaf plant response rating (velvetleaf; [1]): 0
Velvetleaf plant response rating (velvetleaf; [2]): 3
Plant response rating, Velvetleaf (velvetleaf; [3]): 0
Plant response rating, Velvetleaf (velvetleaf; [4]): 0
Velvetleaf plant response rating (velvetleaf; [5]): 0
Velvetleaf plant response rating (velvetleaf; [6]): 4
Velvetleaf plant response rating (velvetleaf; [7]): 0
Velvetleaf plant response rating (velvetleaf; [8]): 0
Cocklebur plant response rating (cocklebur; [1]): 0
Cocklebur plant response rating (cocklebur; [2]): 0
Plant response rating, Cocklebur (cocklebur; [3]): 0
Plant response rating, Cocklebur (cocklebur; [4]): 0
Cocklebur plant response rating (cocklebur; [5]): 0
Cocklebur plant response rating (cocklebur; [6]): 0
Cocklebur plant response rating (cocklebur; [7]): 0
Cocklebur plant response rating (cocklebur; [8]): 0
Morningglory plant response rating (morningglory; [1]): 1
Morningglory plant response rating (morningglory; [2]): 3
Plant response rating, Morningglory (morningglory; [3]): 0
Plant response rating, Morningglory (morningglory; [4]): 0
Morningglory plant response rating (morningglory; [5]): 0
Morningglory plant response rating (morningglory; [6]): 0
Morningglory plant response rating (morningglory; [7]): 0
Morningglory plant response rating (morningglory; [8]): 0
Plant response rating, Rice (0 to 10 scale, 0 is no effect, 10 is complete control) (rice; [9]): 0
Rice plant response rating (0 to 10 scale, 0 is no effect, 10 is complete control) (rice; [10]): 0
Rice plant response rating (rice; [11]): 0
Rice plant response rating (rice; [12]): 0
Plant response rating, Ducksalad (0 to 10 scale, 0 is no effect, 10 is complete control) (duck salad; [9]): 0
Ducksalad plant response rating (0 to 10 scale, 0 is no effect, 10 is complete control) (duck salad; [10]): 0
Ducksalad plant response rating (duck salad; [11]): 0
Ducksalad plant response rating (duck salad; [12]): 0
Plant response rating, Barnyardgrass (0 to 10 scale, 0 is no effect, 10 is complete control) (bamyardgrass; [9]): 0
Barnyardgrass plant response rating (0 to 10 scale, 0 is no effect, 10 is complete control) (bamyardgrass; [10]): 0
Barnyardgrass plant response rating (bamyardgrass; [11]): 0
Barnyardgrass plant response rating (bamyardgrass; [12]): 0
Rape plant response rating (rape; [1]): 0
Rape plant response rating (rape; [2]): 0
Plant response rating, Rape (rape; [3]): 0
Plant response rating, Rape (rape; [4]): 0
Rape plant response rating (rape; [5]): 0
Rape plant response rating (rape; [6]): 2
Rape plant response rating (rape; [7]): 0
Rape plant response rating (rape; [8]): 0
Corn plant response rating (corn; [1]): 0
Corn plant response rating (corn; [2]): 0
Plant response rating, Corn (corn; [3]): 0
Plant response rating, Corn (corn; [4]): 0
Corn plant response rating (corn; [5]): 0
Corn plant response rating (corn; [6]): 0
Corn plant response rating (corn; [7]): 0
Corn plant response rating (corn; [8]): 0
Blackgrass plant response rating (blackgrass; [1]): 5
Blackgrass plant response rating (blackgrass; [2]): 7
Plant response rating, Blackgrass (blackgrass; [3]): 0
Plant response rating, Blackgrass (blackgrass; [4]): 0
Blackgrass plant response rating (blackgrass; [5]): 8
Blackgrass plant response rating (blackgrass; [6]): 8
Blackgrass plant response rating (blackgrass; [7]): 0
Blackgrass plant response rating (blackgrass; [8]): 2
Wheat plant response rating (wheat; [1]): 0
Wheat plant response rating (wheat; [2]): 0
Plant response rating, Wheat (wheat; [3]): 0
Plant response rating, Wheat (wheat; [4]): 0
Wheat plant response rating (wheat; [5]): 0
Wheat plant response rating (wheat; [6]): 0
Wheat plant response rating (wheat; [7]): 0
Wheat plant response rating (wheat; [8]): 0
Redroot pigweed plant response rating (pigweed; [2]): 2
Plant response rating, Redroot pigweed (pigweed; [3]): 10
Plant response rating, Redroot pigweed (pigweed; [4]): 10
Redroot pigweed plant response rating (pigweed; [5]): 10
Redroot pigweed plant response rating (pigweed; [6]): 10
Redroot pigweed plant response rating (pigweed; [7]): 0
Redroot pigweed plant response rating (pigweed; [8]): 2
Plant response rating, S. Flatsedge (0 to 10 scale, 0 is no effect, 10 is complete control) (smallflower flatsedge; [9]): 0
S. Flatsedge plant response rating (0 to 10 scale, 0 is no effect, 10 is complete control) (smallflower flatsedge; [10]): 0
S. Flatsedge plant response rating (smallflower flatsedge; [11]): 0
S. Flatsedge plant response rating (smallflower flatsedge; [12]): 0
Nutsedge plant response rating (purple nutsedge; [1]): 0
Nutsedge plant response rating (purple nutsedge; [2]): 0
Plant response rating, Nutsedge (purple nutsedge; [3]): 0
Plant response rating, Nutsedge (purple nutsedge; [4]): 0
Nutsedge plant response rating (purple nutsedge; [5]): 0
Nutsedge plant response rating (purple nutsedge; [6]): 0
Nutsedge plant response rating (purple nutsedge; [7]): 0
Nutsedge plant response rating (purple nutsedge; [8]): 0
